Assay results as given in patent US9828339B2, “Biphenyl derivatives and methods for preparing same” (DONG-A ST CO., LTD, priority 2013, dated 2017).

Key:
[1] = target: T1, human muscarinic M3 receptor (Homo sapiens (Human), UniProt P20309); experiment: Binding assay on human muscarinic M3 receptor ([3H]-methyl scopolamine displacement); conditions: membranes overexpressing human M3 receptor, Ki from IC50 by Cheng-Prusoff, read-out: Binding Affinity to M3 Receptor, Ki
Outline: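 Displacement of [3H]-methyl scopolamine from membranes overexpressing human M3, in Tris-HCl, 25 °C, 120 min; filter-bound radioactivity counted. Nonspecific binding with 5 μM atropine; Ki from IC50 via Cheng-Prusoff.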

[2] = target: T1, human muscarinic M3 receptor; experiment: Antagonism assay on human muscarinic M3 receptor (carbachol-induced intracellular calcium, FLIPR Calcium 5, transfected Cos-7 cells); type: cell-based; conditions: functional inhibitory constant; carbachol-induced intracellular calcium in Cos-7 cells transfected with human M3 receptor
Procedure: [Experimental Example 2] Antagonism Assay on Human Muscarinic M3 Receptor
The antagonism assay for various compounds of the present invention was conducted on antagonism to human M3 receptor in Cos-7 cells that was transfected with plasmid coding human muscarinic M3 receptor. Test compounds in various concentrations were pre-treated to the cells for 3 minutes, and then the changes of intracellular calcium were measured after treating the same with carbachol (i.e. muscarinic receptor agonist). The FLIPR® Calcium 5 assay (Molecular Devices) and Flex3 device (Molecular Devices) were used to measure concentration of calcium. Amounts of calcium before and after carbachol treatment were set as 0% and 100% respectively. Inhibition rates (%) by the compounds for increase in intracellular calcium by carbachol were calculated. The antagonistic potency of the test compounds on human muscarinic M3 receptor was calculated as the functional inhibitory constant (Ki), which can be calculated from concentration (IC50) of compound inhibiting 50% of activity of carbachol according to Cheng and Prusoff equation.

T1 sequence (P20309 whole entry): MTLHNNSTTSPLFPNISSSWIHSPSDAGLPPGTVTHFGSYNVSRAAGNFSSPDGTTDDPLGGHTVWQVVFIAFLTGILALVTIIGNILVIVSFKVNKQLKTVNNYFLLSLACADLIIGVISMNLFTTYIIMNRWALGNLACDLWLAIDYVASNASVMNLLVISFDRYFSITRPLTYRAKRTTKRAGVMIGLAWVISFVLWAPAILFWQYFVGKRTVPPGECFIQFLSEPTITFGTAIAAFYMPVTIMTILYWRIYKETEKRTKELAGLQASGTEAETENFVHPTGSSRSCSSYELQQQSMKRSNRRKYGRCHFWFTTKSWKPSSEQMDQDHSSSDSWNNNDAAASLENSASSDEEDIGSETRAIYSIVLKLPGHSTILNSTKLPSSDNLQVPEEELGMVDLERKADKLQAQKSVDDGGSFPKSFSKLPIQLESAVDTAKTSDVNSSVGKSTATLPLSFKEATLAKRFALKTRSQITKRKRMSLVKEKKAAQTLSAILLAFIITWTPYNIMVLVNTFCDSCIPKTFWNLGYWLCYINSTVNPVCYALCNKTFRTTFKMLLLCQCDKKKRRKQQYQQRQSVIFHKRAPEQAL

| SMILES | Ki [1] | Ki [2] |
| --- | --- | --- |
| CN1CC[C@H](COC(=O)Nc2ccc(F)cc2-c2cc(Cl)cc(Cl)c2)C1 [Example 126, (S)-(1-methylpyrrolidin-3-yl)methyl(3′,5′-dichloro-5-fluoro-[1,1′-biphenyl]-2-yl)carbamate] | 24.8 nM | 17.5 nM |
| CN1CCCC1CCOC(=O)Nc1ccccc1-c1ccc(F)c(Cl)c1 (stereo not shown) [Example 41, 2-(1-methylpyrrolidin-2-yl)ethyl(3′-chloro-4′-fluoro-[1,1′-biphenyl]-2-yl)carbamate] | 2.45 nM | 0.18 nM |
| CN1CCCC1CCOC(=O)Nc1ccc(F)cc1-c1cc(Cl)c(F)c(Cl)c1 (stereo not shown) [Example 56, 2-(1-methylpyrrolidin-2-yl)ethyl(3′,5′-dichloro-4′,5-difluoro-[1,1′-biphenyl]-2-yl)carbamate] | 12.5 nM | 10 nM |
| CN1CCCC1CCOC(=O)Nc1ccccc1-c1cc(Cl)ccc1F (stereo not shown) [Example 186, 2-(1-Methylpyrrolidin-2-yl)ethyl (5′-chloro-2′-fluoro-[1,1′-biphenyl]-2-yl)carbamate] | 4.68 nM | 0.34 nM |
| CN1CC[C@@H](COC(=O)Nc2ccccc2-c2ccc(Cl)c(Cl)c2)C1 [Example 130, (R)-(1-methylpyrrolidin-3-yl)-methyl (3′,4′-dichloro-[1,1′-biphenyl]-2-yl)carbamate] | 2.1 nM | 1.14 nM |
| CN1CC[C@@H](COC(=O)Nc2ccccc2-c2ccc(F)cc2)C1 [Example 114, (R)-(1-methylpyrrolidin-3-yl)methyl(4′-fluoro-[1,1′-biphenyl]-2-yl)carbamate] | 4.23 nM | 0.58 nM |
| CN1CC[C@@H](COC(=O)Nc2ccc(F)cc2-c2cc(Cl)cc(Cl)c2)C1 [Example 135, (R)-(1-methylpyrrolidin-3-yl)methyl(3′,5′-dichloro-5-fluoro-[1,1′-biphenyl]-2-yl)carbamate] | 24.1 nM | 16.5 nM |
| CN1CC[C@@H](COC(=O)Nc2ccc(F)cc2-c2ccccc2F)C1 [Example 144, (R)-(1-methylpyrrolidin-3-yl)methyl(2′,5-difluoro-[1,1′-biphenyl]-2-yl)carbamate] | 17.2 nM | 1.42 nM |
| CN1CC[C@@H](COC(=O)Nc2ccccc2-c2cc(Cl)ccc2F)C1 [Example 159, (R)-(1-methylpyrrolidin-3-yl)methyl(3′-chloro-6′-fluoro-[1,1′-biphenyl]-2-yl)carbamate] | 5.13 nM | 0.46 nM |
| CN1CC[C@H](COC(=O)Nc2ccccc2-c2cc(F)cc(Cl)c2)C1 [Example 120, (S)-(1-methylpyrrolidin-3-yl)methyl(3′-chloro-5′-fluoro-[1,1′-biphenyl]-2-yl)carbamate] | 9.7 nM | 1.03 nM |
| CN1CCC[C@H]1COC(=O)Nc1ccccc1-c1ccccc1F [Example 187, (S)-(1-methylpyrrolidin-2-yl)methyl(2′-fluoro-[1,1′-biphenyl]-2-yl)carbamate] | 10.7 nM | 0.48 nM |
| CN1CC[C@@H](COC(=O)Nc2ccccc2-c2ccc(F)cc2F)C1 [Example 157, (R)-(1-methylpyrrolidin-3-yl)methyl-(2′,4′-difluoro-[1,1′-biphenyl]-2-yl)carbamate] | 29.6 nM | 3.25 nM |
| CN1CC[C@H](COC(=O)Nc2ccccc2-c2cccc(Cl)c2)C1 [Example 118, (S)-(1-methylpyrrolidin-3-yl)methyl(3′-chloro-[1,1′-biphenyl]-2-yl)carbamate] | 2.42 nM | 0.77 nM |
| CN1CC[C@H](COC(=O)Nc2ccccc2-c2cccc(F)c2)C1 [Example 116, (S)-(1-methylpyrrolidin-3-yl)-methyl (3′-fluoro-[1,1′-biphenyl]-2-yl)carbamate] | 12.6 nM | 1.21 nM |
| CC(C)N1CC[C@@H](COC(=O)Nc2ccccc2-c2ccc(F)c(Cl)c2)C1 [Example 151, (R)-(1-isopropylpyrrolidin-3-yl)-methyl (3′-chloro-4′-fluoro-[1,1′-biphenyl]-2-yl)carbamate] | 14.9 nM | 2.67 nM |
| CN1CCCC1CCOC(=O)Nc1ccccc1-c1cccc(CCCO)c1 (stereo not shown) [Example 29, 2-(1-methylpyrrolidin-2-yl)ethyl(3′-(3-hydroxypropyl)-[1,1′-biphenyl]-2-yl)carbamate] | 931 nM |  |
| CN1CCCC1CCOC(=O)Nc1ccccc1-c1ccc([N+](=O)[O-])cc1 (stereo not shown) [Example 11, 2-(1-methylpyrrolidin-2-yl)ethyl(4′-nitro-[1,1′-biphenyl]-2-yl)carbamate] | 467 nM |  |
| CN1CC[C@@H](COC(=O)Nc2ccccc2-c2cccc(N)c2)C1 [Example 154, (R)-(1-methylpyrrolidin-3-yl)methyl(3′-amino-[1,1′-biphenyl]-2-yl)carbamate] | 16.7 nM |  |

The next lines start with the values.

| Ki [1] | Ki [2] | SMILES |
| --- | --- | --- |
| 1.57 nM | 0.1 nM | CN1CCC[C@H]1COC(=O)Nc1ccccc1-c1ccc(F)c(Cl)c1 [Example 149, (S)-(1-methylpyrrolidin-2-yl)methyl(3′-chloro-4′-fluoro-[1,1′-biphenyl]-2-yl)carbamate] |
| 15.1 nM | 7.5 nM | COc1ccc(NC(=O)OC[C@@H]2CCCN2C)c(-c2cccc(Cl)c2)c1 [Example 224, (S)-(1-methylpyrrolidin-2-yl)methyl(3′-chloro-5-methoxy-[1,1′-biphenyl]-2-yl)carbamate] |
| 18.9 nM | 2.57 nM | CN1CCCC1CCOC(=O)Nc1ccccc1-c1ccc(F)cc1F (stereo not shown) [Example 183, 2-(1-Methylpyrrolidin-2-yl)ethyl (2′,4′-difluoro-[1,1′-biphenyl]-2-yl)carbamate] |
| 16.7 nM | 4.99 nM | COc1ccc(NC(=O)OC[C@@H]2CCCN2C)c(-c2cc(Cl)cc(Cl)c2)c1 [Example 226, (S)-(1-methylpyrrolidin-2-yl)methyl (3′,5′-dichloro-5-methoxy-[1,1′-biphenyl]-2-yl)carbamate] |
| 7.57 nM | 0.35 nM | CN1CC[C@@H](COC(=O)Nc2ccc(F)cc2-c2ccc(F)cc2)C1 [Example 141, (R)-(1-methylpyrrolidin-3-yl)methyl(4′,5-difluoro-[1,1′-biphenyl]-2-yl)carbamate] |
| 9.21 nM | 1.19 nM | CN1CCCC1CCOC(=O)Nc1ccc(F)cc1-c1ccc(F)c(F)c1 (stereo not shown) [Example 42, 2-(1-methylpyrrolidin-2-yl)ethyl(3′,4′,5-trifluoro-[1,1′-biphenyl]-2-yl)carbamate] |
| 13.2 nM | 13.2 nM | CN1CCCC1CCOC(=O)Nc1ccc(Cl)cc1-c1ccc(F)cc1 (stereo not shown) [Example 68, 2-(1-Methylpyrrolidin-2-yl)ethyl(5-chloro-4′-fluoro-[1,1′-biphenyl]-2-yl)carbamate] |
| 13.7 nM | 2.23 nM | CN1CCC[C@H]1COC(=O)Nc1ccccc1-c1ccc(F)cc1F [Example 188, (S)-(1-methylpyrrolidin-2-yl)methyl(2′,4′-difluoro-[1,1′-biphenyl]-2-yl)carbamate] |
| 26.3 nM | 4.7 nM | CN1CCCC1CCOC(=O)Nc1ccc(F)cc1-c1ccc(O)c(Cl)c1 (stereo not shown) [Example 58, 2-(1-methylpyrrolidin-2-yl)ethyl(3′-chloro-5-fluoro-4′-hydroxy-[1,1′-biphenyl]-2-yl)carbamate] |
| 2.17 nM | 0.95 nM | CN1CCC[C@H]1COC(=O)Nc1ccccc1-c1cc(Cl)ccc1F [Example 190, (S)-(1-methylpyrrolidin-2-yl)methyl(3′-chloro-6′-fluoro-[1,1′-biphenyl]-2-yl)carbamate] |
| 10.2 nM | 2.22 nM | CN1CCC[C@H]1COC(=O)Nc1ccccc1-c1cc(F)cc(Cl)c1 [Example 148, (S)-(1-methylpyrrolidin-2-yl)methyl(3′-chloro-5′-fluoro-[1,1′-biphenyl]-2-yl)carbamate] |
| 7.67 nM | 1.54 nM | CCN1CC[C@@H](COC(=O)Nc2ccc(F)cc2-c2ccc(F)c(Cl)c2)C1 [Example 196, (R)-(1-ethylpyrrolidin-3-yl)methyl (3′-chloro-4′,5-difluoro-[1,1′-biphenyl]-2-yl)carbamate] |
| 22 nM | 10 nM | CN1CCCC1CCOC(=O)Nc1ccc(O)cc1-c1ccc(F)c(Cl)c1 (stereo not shown) [Example 77, 2-(1-methylpyrrolidin-2-yl)ethyl (3′-chloro-4′-fluoro-5-hydroxy-[1,1′-biphenyl]-2-yl)carbamate] |
| 2.25 nM | 0.49 nM | CN1CCCC1CCOC(=O)Nc1ccc(F)cc1-c1ccccc1 (stereo not shown) [Example 21, 2-(1-methylpyrrolidin-2-yl)ethyl(5-fluoro-[1,1′-biphenyl]-2-yl)carbamate] |
| 126 nM |  | CN1CCCC1CCOC(=O)Nc1ccc(F)cc1-c1ccc(Cl)c(F)c1 (stereo not shown) [Example 54, 2-(1-methylpyrrolidin-2-yl)ethyl(4′-chloro-3′,5-difluoro-[1,1′-biphenyl]-2-yl)carbamate] |
| 16.9 nM |  | CN1CCC[C@H]1COC(=O)Nc1ccc(F)cc1-c1ccc(F)c(F)c1 [Example 171, (S)-(1-methylpyrrolidin-2-yl)methyl (3′,4′,5-trifluoro-[1,1′-biphenyl]-2-yl)carbamate] |
| 6.18 nM |  | Cc1cccc(-c2cc(F)ccc2NC(=O)OC[C@H]2CCN(C)C2)c1 [Example 94, (S)-(1-methylpyrrolidin-3-yl)methyl (5-fluoro-3′-methyl-[1,1′-biphenyl]-2-yl)carbamate] |
